According to patent US4122184A, “Benzimidazole insecticides” (priority 1977, dated 1978):
Where “and” joins values, the source holds several entries; their conditions need not be identical. Equal values may be shown once.

Experiments:
[1] = tested on: Mexican Bean Beetle; test: Mexican Bean Beetle Test; type: in vivo, Epilachna varivestis (Coleoptera); conditions: 48 h
Outline: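 Snap bean leaves were sprayed on both surfaces with test formulation at a pre-determined level, dried, then infested with ten third-instar Mexican bean beetle larvae per leaf. Mortality (moribund counted as dead) and feeding were scored after 48 h on a rating scale. Malathion at 500 ppm served as reference.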

[2] = tested on: Southern Armyworm; test: Southern Armyworm Test; type: in vivo, Prodenia eridania (Lepidoptera); conditions: 48 h
Description: Ten uniform Southern armyworm larvae about 1-1.5 cm. in length, grown on Henderson lima beans, are placed on excized bean leaves in petri dishes. The bean leaves are obtained and sprayed with the insecticide in the same way as are the snap bean leaves in the Mexican bean beetle test. The reference standards in this instance are leaves sprayed with 5 ml. 100 ppm DDT solution. Mortality counts are made 48 hours after spraying and again moribund larvae are counted as dead. Missing larvae which have probably been eaten are considered alive. The same rating scale is used as in the Mexican bean beetle test.

[3] = tested on: Boll Weevil; test: Boll Weevil Test; type: in vivo, Anthonomus grandis (Coleoptera); conditions: 48 h
Text: The procedure is identical to that employed for the Mexican bean beetle and the Southern armyworm, except that 10 adult boll weevils are placed on cotton leaves that have been dipped into formulations of the test compounds. The same rating scale is used.

[4] = tested on: Bean Leaf Beetle; test: Field trial, stomach poison test; type: in vivo
Outline: (§1)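 Leaves from infested plants sprayed (10 psi) or dipped in test compound at several concentrations, air-dried, then five or ten insects placed per dish, one or two replicates. Mortality scored 0 to 9 at 24, 48 and 72 h, averaged per concentration.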

[5] = tested on: Southern Corn Rootworm Adults; test: Field trial, stomach poison test; type: in vivo; design: key: mortality rating on a 0 to 9 scale
Outline: as §1

[6] = tested on: Striped Cucumber Beetle Adults; test: Field trial, stomach poison test; type: in vivo; design: key: mortality rating on a 0 to 9 scale
Outline: as §1

[7] = tested on: Bean Leaf Beetle; test: Field trial, contact poison test; type: in vivo
Outline: (§2)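 Read-out: mortality rating 0–9 (0 = 0-10 percent, 9 = 91-100 percent) at 24/48/72 h, averaged per concentration. Insects were sprayed on potted-in-water host plants using an atomizer at 10 psi, with dead insects caught on paper below.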

[8] = tested on: Red-Legged Grasshopper Adults; test: Field trial, contact poison test; type: in vivo
Outline: as §2

[9] = tested on: Southern Corn Rootworm Adults; test: Field trial, contact poison test; type: in vivo
Outline: as §2

[10] = tested on: Two-spotted Spider Mite; test: Two-spotted Spider Mite test; type: in vivo, Tetranychus urticae (Acarina); conditions: 48 h
Description: The procedure in this test is the same as that in the previous aphid test, except that about 100 two-spotted spider mites from a stock colony raised on squash plants are transferred to a cut squash cotyledon. The mortality is estimated 48 hours after spraying. The same rating scale is used.

[11] = tested on: Oriental Cockroach; test: Oriental Roach Test; type: in vivo, Blatta orientalis (Orthoptera); conditions: 24 h
Outline: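 Ten late-instar (3-4 month) nymphs per cage, held at 70°-80° F., sprayed with 5 ml of insecticide formulation at a specified amount. Cockroaches kept unfed and unwatered; mortality counted 24 hours post-spray, with insects staying on the cage bottom after light shaking scored dead.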

[12] = tested on: Yellow Mealworm Larvae; test: Field trial, topical application; type: in vivo; design: key: 0 = 0-10% mortality, 9 = 91-100% mortality (0-9 scale)
Outline: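 1 μL benzimidazole solution of set microgram content applied topically to larvae or adults. Mortality read at 24, 48 and 72 h where applicable, rated 0-9 (0 = 0-10%, 9 = 91-100%); values are average mortality per concentration.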

[13] = tested on: Squash Bug Adults; test: Field trial, contact poison test; type: in vivo; design: key: 0-9 rating: 0 = 0-10% mortality, 9 = 91-100% mortality
Outline: as §2

Compound: mixture of benzyl 2,6-bis(trifluoromethyl)-4-nitro-1-benzimidazolecarboxylate and benzyl 2,5-bis(trifluoromethyl)-7-nitro-1-benzimidazolecarboxylate
- mortality rating ([1]; 50 ppm): 9 (91-100)
- mortality rating ([1]; 100 ppm): 9 (91-100)
- mortality rating ([1]; 250 ppm): 9 (91-100)
- mortality rating ([1]; 500 ppm): 9 (91-100)
- mortality rating ([1]; 1000 ppm): 9 (91-100)
- mortality rating ([2]; 100 ppm): 2 (21-30)
- mortality rating ([2]; 500 ppm): 6 (61-70)
- mortality rating ([2]; 1000 ppm): 7 (71-80)
- mortality rating ([3]; 10 ppm): 4.5
- mortality rating ([3]; 25 ppm): 8.5
- mortality rating ([3]; 50 ppm): 7 (71-80)
- mortality rating ([3]; 100 ppm): 9 (91-100)
- mortality rating ([3]; 250 ppm): 9 (91-100)
- mortality rating ([3]; 500 ppm): 9 (91-100)
- mortality rating ([3]; 1000 ppm): 9 (91-100)
- average mortality rating ([4]; 10 ppm): 0 (0-10 percent)
- average mortality rating ([4]; 25 ppm): 1
- average mortality rating ([4]; 50 ppm): 2
- average mortality rating ([5]; 25 ppm): 1
- average mortality rating ([5]; 50 ppm): 2
- average mortality rating ([5]; 100 ppm): 4
- average mortality rating ([6]; 10 ppm): 4
- average mortality rating ([6]; 25 ppm): 4
- average mortality rating ([6]; 50 ppm): 5
- average mortality rating ([6]; 100 ppm): 7
- average mortality rating ([7]; 25 ppm): 0 (0-10 percent)
- average mortality rating ([7]; 50 ppm): 2
- average mortality rating ([7]; 100 ppm): 7
- average mortality rating ([8]; 25 ppm): 9 (91-100 percent mortality)
- average mortality rating ([8]; 50 ppm): 9 (91-100 percent mortality)
- average mortality rating ([9]; 25 ppm): 4
- average mortality rating ([9]; 50 ppm): 4
- average mortality rating ([9]; 100 ppm): 9 (91-100 percent mortality)
- mortality rating ([10]; 10 ppm): 8 (81-90)
- mortality rating ([10]; 25 ppm): 7 (71-80)
- mortality rating ([10]; 50 ppm): 9 (91-100)
- mortality rating ([10]; 100 ppm): 9 (91-100)
- mortality rating ([10]; 250 ppm): 9 (91-100)
- mortality rating ([10]; 500 ppm): 9 (91-100)
- mortality rating ([10]; 1000 ppm): 9 (91-100)
- mortality rating ([11]; 50 ppm): 1.5
- mortality rating ([11]; 100 ppm): 3 (31-40)
- mortality rating ([11]; 250 ppm): .5
- mortality rating ([11]; 500 ppm): 1.5
- mortality rating ([11]; 1000 ppm): 9 (91-100)
- average mortality rating ([12]; 0.03 μg/μl): 1
- average mortality rating ([12]; 0.07 μg/μl): 4
- average mortality rating ([12]; 0.15 μg/μl): 5

Compound: mixture of methyl 2,6-bis(trifluoromethyl)-4-nitro-1-benzimidazolecarboxylate and methyl 2,5-bis(trifluoromethyl)-7-nitro-1-benzimidazolecarboxylate
- mortality rating ([1]; 5 ppm): 0 (0-10)
- mortality rating ([1]; 10 ppm): 9 (91-100)
- mortality rating ([1]; 25 ppm): 9 (91-100)
- mortality rating ([1]; 50 ppm): 9 (91-100)
- mortality rating ([1]; 100 ppm): 9 (91-100)
- mortality rating ([1]; 250 ppm): 9 (91-100)
- mortality rating ([1]; 500 ppm): 9 (91-100)
- mortality rating ([1]; 1000 ppm): 9 (91-100)
- mortality rating ([2]; 1000 ppm): 1 (11-20)
- mortality rating ([3]; 5 ppm): 0 (0-10)
- mortality rating ([3]; 10 ppm): 5.5
- mortality rating ([3]; 25 ppm): 8.5
- mortality rating ([3]; 50 ppm): 9 (91-100)
- mortality rating ([3]; 100 ppm): 9 (91-100)
- mortality rating ([3]; 250 ppm): 9 (91-100)
- mortality rating ([3]; 500 ppm): 9 (91-100)
- mortality rating ([3]; 1000 ppm): 9 (91-100)
- average mortality rating ([4]; 10 ppm): 1
- average mortality rating ([4]; 25 ppm): 0 (0-10 percent)
- average mortality rating ([4]; 50 ppm): 1
- average mortality rating ([5]; 25 ppm): 3 and 4
- average mortality rating ([5]; 50 ppm): 4
- average mortality rating ([5]; 100 ppm): 6
- average mortality rating ([6]; 10 ppm): 2
- average mortality rating ([6]; 25 ppm): 0 (0-10 percent)
- average mortality rating ([6]; 50 ppm): 5
- average mortality rating ([6]; 100 ppm): 9 (91-100 percent mortality)
- average mortality rating ([13]; 125 ppm): 0 (0-10 percent)
- average mortality rating ([13]; 250 ppm): 0 (0-10 percent)
- average mortality rating ([13]; 500 ppm): 2
- average mortality rating ([13]; 750 ppm): 3
- average mortality rating ([7]; 25 ppm): 0 (0-10 percent)
- average mortality rating ([7]; 50 ppm): 0 (0-10 percent)
- average mortality rating ([7]; 100 ppm): 1
- average mortality rating ([9]; 25 ppm): 5 and 3
- average mortality rating ([9]; 100 ppm): 9 (91-100 percent mortality)
- mortality rating ([10]; 10 ppm): 3 (31-40)
- mortality rating ([10]; 25 ppm): 4 (41-50)
- mortality rating ([10]; 50 ppm): 9 (91-100)
- mortality rating ([10]; 100 ppm): 6 (61-70)
- mortality rating ([10]; 250 ppm): 9 (91-100)
- mortality rating ([10]; 500 ppm): 9 (91-100)
- mortality rating ([10]; 1000 ppm): 9 (91-100)
- mortality rating ([11]; 50 ppm): 0 (0-10)
- mortality rating ([11]; 100 ppm): 0 (0-10)
- mortality rating ([11]; 250 ppm): 5.5
- mortality rating ([11]; 500 ppm): 9 (91-100)
- mortality rating ([11]; 1000 ppm): 9 (91-100)
- average mortality rating ([12]; 0.03 μg/μl): 2
- average mortality rating ([12]; 0.07 μg/μl): 3
- average mortality rating ([12]; 0.15 μg/μl): 6

Compound: O=[N+]([O-])c1cc(C(F)(F)F)cc2[nH]c(C(F)(F)Cl)nc12 [L, 2-chlorodifluoromethyl-4-nitro-6-trifluoromethylbenzimidazole]
- mortality rating ([1]; 50 ppm): 8.5
- mortality rating ([2]; 500 ppm): 1.5
- mortality rating ([3]; 10 ppm): .5
- mortality rating ([3]; 25 ppm): 1.5
- average mortality rating ([4]; 10 ppm): 1
- average mortality rating ([4]; 25 ppm): 1
- average mortality rating ([4]; 50 ppm): 0 (0-10 percent)
- average mortality rating ([5]; 25 ppm): 1
- average mortality rating ([5]; 50 ppm): 4
- average mortality rating ([5]; 100 ppm): 6
- average mortality rating ([13]; 125 ppm): 0 (0-10 percent)
- average mortality rating ([13]; 250 ppm): 6
- average mortality rating ([13]; 500 ppm): 6
- average mortality rating ([13]; 750 ppm): 9 (91-100 percent mortality)
- average mortality rating ([7]; 25 ppm): 0 (0-10 percent)
- average mortality rating ([7]; 50 ppm): 4
- average mortality rating ([7]; 100 ppm): 6
- average mortality rating ([8]; 25 ppm): 7
- average mortality rating ([8]; 50 ppm): 9 (91-100 percent mortality)
- average mortality rating ([9]; 25 ppm): 5
- average mortality rating ([9]; 50 ppm): 8
- average mortality rating ([9]; 100 ppm): 9 (91-100 percent mortality)
- mortality rating ([10]; 5 ppm): 7.5
- mortality rating ([11]; 500 ppm): 5.5
- average mortality rating ([12]; 0.03 μg/μl): 5
- average mortality rating ([12]; 0.07 μg/μl): 5
- average mortality rating ([12]; 0.15 μg/μl): 9 (91-100 percent mortality)
